Series [1] deals with aging-related pathways. Description: Pathway transcriptional profile score analysis. Type of series: in vivo, C. elegans. An excerpt: In the second approach, the transcriptomic profile of worms treated with SND303 compound was compared with published transcriptomes in which specific aging-related pathways have been manipulated. In contrast with the first approach, this blindly scores how the data fits with published transcriptomic signatures of aging.
Frequently cited and relevant studies analyzing the transcriptomic signatures of aging-related pathways in C. elegans were selected for this analysis. […] To generate a transcriptional profile score, the log fold change for each key gene in each pair of comparison (e.g. SND303 vs. negative control) is multiplied by a direction-specific factor and assigned a positive or negative value based on whether the change is in the same direction as reported in the literature. All the gene scores for a given pathway are summed up to produce one aggregated score per pathway for each pair of comparison.

Series [2] relates to KEGG pathways. The series can be described thus: KEGG pathway mapping of differentially-expressed genes. In kind it is in vivo, C. elegans. An excerpt: To determine which among recognized aging-related pathways were most likely modulated by treatment with the SND303 compound, and to estimate their relative contributions, two approaches were undertaken. In one approach, the genes differentially expressed after treatment were mapped to pathways in the KEGG database, a curated knowledgebase of biological pathways. This placed the transcriptomic data within the context of well-characterized biological pathways, particularly several related to longevity.
Several of these genes matched to the canonical longevity pathways as curated in KEGG (FIG. 5). […] At Day 10, however, many more pathways were represented among differentially-expressed genes and each individual pathway was more richly populated with differentially-expressed genes. The most prominent increase was in the expression of genes involved in Oxidative Phosphorylation, possibly indicating maintenance of mitochondrial function. In addition, several components of the canonical Longevity Regulating Pathway are represented. With closer examination of these the differential expression of the gene encoding Target of Rapamycin (TOR) is notable. When the TOR pathways itself was expanded, several more differentially-expressed genes were represented that were not explicitly indicated in the Longevity Regulating Pathway. Applying this process with the other pathways and modules linked to the Longevity Regulating Pathway, a coherent hypothetical pathway of action emerges.

Series [3] concerns N2 wild type strain of worms. Description: C. elegans life span (survival) assay, manual scoring (SND301). Type of series: in vivo. As for the experimental part: The survival assay was conducted in the presence of 50 μM SND301 with measurements of live, dead, and censored worms at time points every 2-3 days from the start of adulthood.
Thioflavin T was used in the assay as a positive control [Gamir-Morralla A et al, 2019, “Effects of Thioflavin T and GSK-3 Inhibition on Lifespan and Motility in a Caenorhabditis elegans Model of Tauopathy”, J Alzheimers Dis Rep., 3(1): 47-57]. Vehicle 25% and 1% DMSO were used as controls and represent the vehicles in which compounds and bacteria or bacteria alone respectively were resuspended. The final DMSO concentration in the agar plates was 0.5% and 0.02% respectively.
5 mM DMSO stock solutions for each compound were prepared in high-grade DMSO. Stocks were protected from light and stored in glass vials at 21° C. in a temperature-controlled room (to avoid freeze/thaw of DMSO). A fresh stock was prepared at the start of each experiment and stored for <1 week.
The lifespan assay was designed and performed according to published and validated methods with modifications for chemical treatment [Amrit F R G et al, 2014, “The C. elegans lifespan assay toolkit”, METHODS 68, 465-475; Leukanic, et. Al, “Manual Lifespan Assay Standard Operating Procedure”, Caenorhabditis Intervention Testing Program, https://figshare.com/articles/7_CITP_SOP_Manual_Lifespan_Assay/9738197/1]. Plates were seeded with compound dissolved in 25% DMSO and bacteria. The DMSO diffused through the agar to reach a final concentration of 0.5%. Synchronized day 1 adult worms were transferred to seeded plates containing compound and allowed to lay eggs for 2 hours (Day 0, “hatchoff”). The young adults were then removed, and the eggs were incubated at 20° C. until they had reached the young adult stage (day 3). 200 young adult worms per treatment were transferred to 8 fresh seeded 35 mm dishes with compound and 50 μM 5-Fluorodeoxyuridine to suppress progeny. […] Worms that were missing, stuck to the dish, burrowed, injured, or exploded were scored as censored and removed from the plate. To maintain chemical exposure at the experimental concentrations, worms were transferred every other scoring day to new seeded plates with compound.

The mark [4] stands for this setting: Day 10, against negative control.
Where [5] appears, read: end of the study, SND301 and Urolithin A 50 μM.

Entries after “also recorded” stand apart in the source; their conditions may differ.

With `CC(C)NC(=O)Oc1ccc2c(c1)oc(=O)c1cc(OC(=O)NC(C)C)ccc12` [SND303], the “Transcriptional profile score, overall” value in series [1] (Day 3, against negative control) was “little deviation from the control”. Moreover, in series [1] (setting [4]), the “Transcriptional profile score, Oxidative stress response” value is “strong negative score” and the “Transcriptional profile score, overall” value is on record as “greatest overall profile contrast with control”. Further, in series [2] (Day 3), the “cel00980 Metabolism of xenobiotics by cytochrome P450: differentially-expressed genes” value was “gst-4; Glutathione S-transferase 4; also recorded: sodh-1; Alcohol dehydrogenase 1; also recorded: gst-5; Probable glutathione S-transferase 5” and the “cel04212 Longevity regulating pathway: differentially-expressed genes” value is reported as “gst-4; Glutathione S-transferase 4; also recorded: gst-5; Probable glutathione S-transferase 5; also recorded: ctl-2; Peroxisomal catalase 1”. Moreover, in series [2] (Day 10), the “cel00190 Oxidative phosphorylation: differentially-expressed genes” value is reported as 15 genes, the “cel03040 Spliceosome: differentially-expressed genes” value turned out to be 10 genes, the “cel03050 Proteasome: differentially-expressed genes” value turned out to be 11 genes and the “cel04010 MARK signaling pathway: differentially-expressed genes” value was “mtk-1; Protein kinase domain-containing protein; also recorded: fln-2; FiLamiN (actin binding protein) homolog; also recorded: nsy-1; Mitogen-activated protein; also recorded: mnk-1; MAP kinase-interacting; also recorded: pxf-1; Rap guanine nucleotide exchange factor; also recorded: ced-2; Cell death abnormality protein 2; also recorded: daf-2; Insulin-like receptor subunit beta”. Further, in series [2] (Day 10), the “cel04120 Ubiquitin mediated proteolysis: differentially-expressed genes” value is listed as 6 genes, the “cel04140 Autophagy: differentially-expressed genes” value is listed as “let-363; Target of rapamycin homolog; also recorded: daf-15; Raptor_N domain-containing protein; also recorded: pek-1; Eukaryotic translation initiation; also recorded: atg-2; Autophagy-related protein 2; also recorded: cpl-1; Cathepsin L-like; also recorded: epg-7; ATG11 domain-containing protein; also recorded: ragc-1; RAs-related GTP binding; also recorded: unc-51; Serine/threonine-protein kinase unc-51”, the “cel04141 Protein processing in endoplasmic reticulum: differentially-expressed genes” value was “pdi-2; Protein disulfide-isomerase 2; also recorded: cup-2; Derlin-1; also recorded: skr-2; SKp1 Related (ubiquitin ligase; also recorded: pek-1; Eukaryotic translation initiation; also recorded: uggt-1; UDP-Glucose Glycoprotein; also recorded: nsy-1; Mitogen-activated protein kinase; also recorded: rbx-1; RING-box protein 1; also recorded: Protein transport protein Sec61 subunit gamma” and the “cel04150 mTOR signaling pathway: differentially-expressed genes” value is “let-363; Target of rapamycin homolog; also recorded: daf-15; Raptor_N domain-containing protein; also recorded: rict-1; RICTOR_V domain-containing protein; also recorded: T08A11.1; DEP domain-containing protein; also recorded: ragc-1; RAs-related GTP binding; also recorded: Y32H12A.8; WD_Repeats domain-containing; also recorded: daf-2; Insulin-like receptor subunit beta; also recorded: unc-51; Serine/threonine-protein kinase unc-51”. Moreover, in series [2] (Day 10), the “cel04212 Longevity regulating pathway-worm: differentially-expressed genes” value was “let-363; Target of rapamycin homolog; also recorded: sod-2; Superoxide dismutase [Mn] 1, mitochondrial; also recorded: gst-7; Probable glutathione S-transferase 7; also recorded: fat-6; Delta(9)-fatty-acid desaturase fat-6; also recorded: daf-2; insulin-like receptor subunit beta; also recorded: unc-51; Serine/threonine-protein kinase unc-51” and the “cel04361 Axon regeneration: differentially-expressed genes” value is listed as 7 genes.
Turning to `O=c1oc2cc(O)ccc2c2ccc(O)cc12` [Urolithin A, reference compound], the Death events in series [3] (Table 1A, at a certain point during the study, N2, SND301 and Urolithin A 50 μM) was 47. In addition, the “% Complete” value in series [3] (Table 1A, deaths attributed to aging from total worm population, at a certain point during the study, N2) stood at 25.7%. In addition, the Death events in series [3] (Table 1B, end of the study, SND301 and Urolithin A 50 μM) was determined as 178. In addition, in series [3] (setting [5]), the “Maximum life span” value came out at 35 days and the “Median lifespan” value is 21 days.
